In test [1] the test system is MDA-MB-435 cells. Nature of the test: Cell viability (MTS). The following applies: 48 hours. Type of test: cell-based. Here is the method: (§1) Cells were cultured in RPMI-1640 containing 10% FBS (Jurkat and THP-1) or DMEM containing 10% FBS (A549 and MDA-MB-435). On Day 1, 1-5×10^4 cells per well in 100 μL of the cell culture medium containing 0.5% FBS were seeded into a 96-well flat bottom plate. On Day 2, the test compounds were added to the culture at different concentrations in triplicates. The controls include triplicates of no compound treatment and cell culture medium without cells. The cells were incubated at 5% CO2, 37° C. for 48 hours. On Day 4, MTS reagent was added to each well and incubated at 37° C. for 4 hours. The absorbance was read at 490 nm. The percentage of inhibition was calculated using the formula: [1-(experiment reading-background reading)/(negative control reading-background reading)]×100.

The next test has as its system THP1 cells. Nature of the test: Cell viability (MTS). Type of test: cell-based. The following applies: 48 hours. The protocol:
as §1

Test [2] deals with Jurkat cells. Kind of test: Cell viability (MTS). Type of test: cell-based. The following applies: 48 hours. Here is the method:
as §1

The subject of test [3] is MDA-MB-435 cells. Kind of test: Cell proliferation ([3H]-thymidine). Type of test: cell-based. To be noted: 48 hours, read-out: Anti-proliferation IC50, MDA-MB-435. Here is the method: (§2) Cells were cultured in RPMI-1640 containing 10% FBS (Jurkat) or DMEM containing 10% FBS (MDA-MB-435). On Day 1, 1×10^4 cells were seeded into one well of a 96-well white ISOPLATE™ with 0.5% FBS. The cells were cultured at 5% CO2, 37° C. overnight. On Day 2, the diluted test compounds were added into each well in a total volume of 100 μL of cell culture medium. For each cell line were set up three wells containing cells and only diluted DMSO as a negative (vehicle) control, and three wells without cells but containing the same volume and type of cell culture medium as background control. The cells were incubated at 5% CO2, 37° C. for 24 hours. On Day 3, 1 μL of [^3H]-thymidine was added into each well and incubation at 5% CO2, 37° C. was continued for another 24 hours. On Day 4, 30 μL of 50% TCA was added into each well and was incubated at 4° C. for 4 hours. Plates were washed with ddH2O four times and then air dried for 30 minutes followed by the addition of 100 μL of scintillation fluid into each well. The radioactivity was read using MICROBETA TRILUX™. The percentage of inhibition was calculated using the formula [1-(experiment reading-background reading)/(negative control reading-background reading)]×100.

The test system of test [4] is Jurkat cells. Kind of test: Cell proliferation ([3H]-thymidine). Format: cell-based. To be noted: 48 hours, read-out: Anti-proliferation IC50, Jurkat. The protocol: as §2
For test [5], the target named is T1, recombinant human PDE4B1 enzyme (Homo sapiens, UniProt Q07343).
T1 construct: host or cells: baculoviral system
Kind of test: PDE4B1 radiometric enzyme assay. Format: biochemical. The following applies: 1 μM cAMP. Here is the method:
Assays were performed using recombinant human PDE4B1 enzyme expressed in a baculoviral system. […] The reactions were performed at 1 μM of cAMP. The test articles were each tested at 0.2 μM and 20 μM in triplicates.

The next test relates to A549 cells. Kind of test: Cell viability (MTS). Format: cell-based. The following applies: 48 hours. Here is the method: as §1

T1 sequence (Q07343 whole entry): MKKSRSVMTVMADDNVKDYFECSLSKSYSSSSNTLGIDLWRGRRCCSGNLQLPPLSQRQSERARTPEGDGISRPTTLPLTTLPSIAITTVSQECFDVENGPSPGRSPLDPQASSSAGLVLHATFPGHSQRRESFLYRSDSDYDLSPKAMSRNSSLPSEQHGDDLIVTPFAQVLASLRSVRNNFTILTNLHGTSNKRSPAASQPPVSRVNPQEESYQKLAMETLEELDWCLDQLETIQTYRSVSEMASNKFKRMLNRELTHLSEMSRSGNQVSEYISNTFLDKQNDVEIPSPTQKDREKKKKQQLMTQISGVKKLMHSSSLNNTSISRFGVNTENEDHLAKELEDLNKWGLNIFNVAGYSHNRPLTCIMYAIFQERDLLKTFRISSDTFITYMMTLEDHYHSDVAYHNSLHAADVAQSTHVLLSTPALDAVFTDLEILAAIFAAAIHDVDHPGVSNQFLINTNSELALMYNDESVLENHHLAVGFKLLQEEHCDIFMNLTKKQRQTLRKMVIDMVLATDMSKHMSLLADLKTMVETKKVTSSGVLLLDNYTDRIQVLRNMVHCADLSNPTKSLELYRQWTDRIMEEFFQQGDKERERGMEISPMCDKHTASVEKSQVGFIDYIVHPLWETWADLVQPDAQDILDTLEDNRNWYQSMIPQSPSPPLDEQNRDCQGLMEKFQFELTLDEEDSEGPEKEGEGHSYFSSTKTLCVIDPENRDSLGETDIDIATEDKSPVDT

For the molecule `Oc1cc(/C=C/c2c(F)cccc2F)ccc1C1CCCC1` [Compound 22], the IC50 in the test with MDA-MB-435 cells [1] came out at 1720 nM; with THP1 cells, 2460 nM; with Jurkat cells [2], 2960 nM.
As for `Oc1cc(/C=C/c2ccc(F)cc2F)ccc1C1CCCC1` [Compound 21], the IC50 worked out at 1770 nM in the test on MDA-MB-435 cells [3]; 690 nM in the test with Jurkat cells [4]; 1950 nM in the test with MDA-MB-435 cells [1]; 6930 nM with THP1 cells; 3730 nM in the test on Jurkat cells [2].
In the case of `Oc1cc(/C=C/c2ccc(F)cc2)ccc1C1CCCCC1` [Compound 24], the IC50 came out at 390 nM in the test on MDA-MB-435 cells [1], 7180 nM with THP1 cells and 2660 nM in the test on Jurkat cells [2].
Take `N#Cc1ccc(/C=C/c2ccc(C3CC3)c(O)c2)c(C#N)c1` [Compound 17]: the IC50 stood at 1660 nM in the test with MDA-MB-435 cells [3]; 1380 nM with Jurkat cells [4]; 1780 nM in the test on MDA-MB-435 cells [1]; 2740 nM in the test on THP1 cells; 7980 nM in the test on Jurkat cells [2].
Turning to `Oc1cc(/C=C/c2ccccc2)ccc1C1CC1` [Compound 11], the IC50 was 4250 nM in the test with MDA-MB-435 cells [3] and 1710 nM with Jurkat cells [4].
`Oc1cc(/C=C/c2ccc(F)cc2)ccc1C1CCCC1` [Compound 20]: the “Inhibitory activity on PDE4B1 enzyme” value is recorded as “+ (“+” is 15-30% inhibition)” in test [5] (0.2 μM compound) and “+++ (“+++” is greater than 50% inhibition)” in test [5] (20 μM compound).
Take `N#Cc1ccc(/C=C/c2ccc(C3CC3)c(O)c2)cc1C#N` [Compound 18]: the IC50 in the test on MDA-MB-435 cells [1] came to 1270 nM; in the test with THP1 cells, 2400 nM; with Jurkat cells [2] it was 3280 nM.
In the same order, the values of `CC(C)c1ccc(/C=C/c2ccccc2)cc1O` [Compound 1] are 25000 nM, 2250 nM and 2160 nM.
For the molecule `Oc1cc(/C=C/c2ccc(F)cc2)ccc1C1CCCCCC1` [Compound 27], the “Inhibitory activity on PDE4B1 enzyme” value in test [5] (0.2 μM compound) is on record as “+ (“+” is 15-30% inhibition)”; in test [5] (20 μM compound), “+++ (“+++” is greater than 50% inhibition)”.
In the case of `Oc1cc(/C=C/c2ccc(F)cc2)ccc1C1CC1` [Compound 12], the IC50 in the test with MDA-MB-435 cells [1] is 1620 nM; with THP1 cells, 15400 nM; in the test on Jurkat cells [2] it was 1650 nM; with A549 cells, 32000 nM. The “Inhibitory activity on PDE4B1 enzyme” value in test [5] (0.2 μM compound) is “+ (“+” is 15-30% inhibition)”; in test [5] (20 μM compound), “+++ (“+++” is greater than 50% inhibition)”.

The record behind these values is patent US11000485B2, “Substituted hydroxystilbenes as AhR and Nrf2 modulators and their therapeutic applications” (Resolvex Pharmaceuticals Inc., priority 2017, dated 2021).
